Measured values taken from ChEMBL document CHEMBL1201862, “PubChem BioAssay data set” (2004).
Several values for one entry are separate records, joined by “and”; a condition that tells them apart may be missing. Equal entries are not always repeated. Activity calls are given as the source filed them.

Tests used:
Hexokinase HKDC1 = biological target: T1, Hexokinase HKDC1 (Homo sapiens, UniProt Q2TB90); assay: HKDC1 hexokinase inhibitors, SAR follow-up, biochemical, set 2 (AID 588355); format: functional
T1 sequence (Q2TB90 whole entry): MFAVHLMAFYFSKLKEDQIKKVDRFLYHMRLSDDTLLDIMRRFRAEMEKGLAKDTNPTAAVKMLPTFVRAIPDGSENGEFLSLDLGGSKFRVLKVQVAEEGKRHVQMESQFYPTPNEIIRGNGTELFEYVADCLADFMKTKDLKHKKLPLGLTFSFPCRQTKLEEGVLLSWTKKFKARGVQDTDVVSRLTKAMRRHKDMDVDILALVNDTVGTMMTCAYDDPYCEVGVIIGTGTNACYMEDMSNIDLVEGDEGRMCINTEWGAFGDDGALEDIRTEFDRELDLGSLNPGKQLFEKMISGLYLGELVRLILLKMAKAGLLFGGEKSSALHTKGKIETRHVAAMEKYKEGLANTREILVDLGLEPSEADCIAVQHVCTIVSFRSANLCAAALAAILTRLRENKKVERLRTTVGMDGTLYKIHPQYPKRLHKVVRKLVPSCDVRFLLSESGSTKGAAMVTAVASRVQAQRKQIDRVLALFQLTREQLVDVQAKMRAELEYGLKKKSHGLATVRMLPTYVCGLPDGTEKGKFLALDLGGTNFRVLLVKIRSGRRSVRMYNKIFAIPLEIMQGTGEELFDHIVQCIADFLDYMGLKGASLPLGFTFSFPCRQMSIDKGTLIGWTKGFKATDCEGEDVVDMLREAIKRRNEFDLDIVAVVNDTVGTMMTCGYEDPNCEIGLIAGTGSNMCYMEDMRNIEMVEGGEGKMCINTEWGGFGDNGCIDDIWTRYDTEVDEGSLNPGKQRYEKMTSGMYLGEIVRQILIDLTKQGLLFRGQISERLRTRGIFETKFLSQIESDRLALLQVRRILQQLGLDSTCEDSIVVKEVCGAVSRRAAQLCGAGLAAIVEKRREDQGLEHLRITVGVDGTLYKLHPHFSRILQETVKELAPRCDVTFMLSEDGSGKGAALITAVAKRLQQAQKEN

Hexokinase-1 = Hexokinase-1 (Homo sapiens, UniProt P19367); assay: HK1 enzyme inhibition by HKDC1 hits, SAR follow-up, selectivity assay for HKDC1 inhibitor project, biochemical, set 2, resazurin fluorescence coupled readout (AID 588356); format: functional
[1] = growth suppression of beta-catenin-knockout colon cells, dose response, cell-based, HCT116, human colon tumor (AID 1045); format: functional;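 note: HCT116 colon tumor cells with beta catenin knocked out; cells exposed to compound for 60 hours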
[2] = growth suppression of PTEN-null colon cells, dose response, cell-based, HCT116 PTEN knockout (AID 1047); format: functional;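 note: HCT116 colon tumor cells with PTEN knocked out; cells exposed to compound for 60 hours before readout; potency for loss of cell viability measured by luminescence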
[3] = biological target: T2, Apoptotic protease-activating factor 1 (Homo sapiens, UniProt O14727); assay: activation of Apaf-1 mediated apoptosis – fluorescent, uHTS hits, dose response (AID 588554); format: functional
T2 sequence (O14727 whole entry): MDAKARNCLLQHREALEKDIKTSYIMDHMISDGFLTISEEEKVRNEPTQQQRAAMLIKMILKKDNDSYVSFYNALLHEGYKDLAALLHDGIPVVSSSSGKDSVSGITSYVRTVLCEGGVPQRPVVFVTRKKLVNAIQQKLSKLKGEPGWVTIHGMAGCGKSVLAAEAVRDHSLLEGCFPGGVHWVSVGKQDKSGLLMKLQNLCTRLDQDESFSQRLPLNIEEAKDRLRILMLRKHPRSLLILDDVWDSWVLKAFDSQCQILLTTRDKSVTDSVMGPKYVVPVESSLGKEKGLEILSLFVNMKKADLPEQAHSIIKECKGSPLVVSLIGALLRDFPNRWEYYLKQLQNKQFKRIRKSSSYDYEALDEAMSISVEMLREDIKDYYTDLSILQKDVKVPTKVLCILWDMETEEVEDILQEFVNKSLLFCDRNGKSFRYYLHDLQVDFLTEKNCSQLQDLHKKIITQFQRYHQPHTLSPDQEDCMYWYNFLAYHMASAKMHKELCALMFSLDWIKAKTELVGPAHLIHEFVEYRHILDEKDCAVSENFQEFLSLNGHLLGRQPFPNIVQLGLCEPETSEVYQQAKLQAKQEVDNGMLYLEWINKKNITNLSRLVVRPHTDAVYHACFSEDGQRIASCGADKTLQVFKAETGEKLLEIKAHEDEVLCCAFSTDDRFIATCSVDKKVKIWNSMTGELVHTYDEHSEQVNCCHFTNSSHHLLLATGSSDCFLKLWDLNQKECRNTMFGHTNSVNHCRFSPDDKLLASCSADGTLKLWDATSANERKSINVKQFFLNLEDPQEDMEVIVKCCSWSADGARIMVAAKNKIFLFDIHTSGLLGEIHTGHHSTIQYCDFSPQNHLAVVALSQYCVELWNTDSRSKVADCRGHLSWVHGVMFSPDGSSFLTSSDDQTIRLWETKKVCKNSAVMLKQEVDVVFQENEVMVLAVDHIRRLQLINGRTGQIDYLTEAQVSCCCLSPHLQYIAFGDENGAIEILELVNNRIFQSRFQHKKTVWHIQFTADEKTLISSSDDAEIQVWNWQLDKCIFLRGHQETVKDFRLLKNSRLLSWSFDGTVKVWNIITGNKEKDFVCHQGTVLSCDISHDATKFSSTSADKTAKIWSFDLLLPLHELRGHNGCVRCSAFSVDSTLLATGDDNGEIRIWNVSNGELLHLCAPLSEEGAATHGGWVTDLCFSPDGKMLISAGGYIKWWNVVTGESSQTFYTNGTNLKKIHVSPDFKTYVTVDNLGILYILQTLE

Cytochrome P450 2D6 [4] = biological target: T3, Cytochrome P450 2D6 (Homo sapiens, UniProt P10635);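 note: CYP2D6 member of a cytochrome P450 panel assay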
Cytochrome P450 1A2 = biological target: T4, Cytochrome P450 1A2 (Homo sapiens, UniProt P05177);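 note: PubChem cytochrome P450 panel assay, CYP1A2 panel member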
T4 sequence (P05177 whole entry): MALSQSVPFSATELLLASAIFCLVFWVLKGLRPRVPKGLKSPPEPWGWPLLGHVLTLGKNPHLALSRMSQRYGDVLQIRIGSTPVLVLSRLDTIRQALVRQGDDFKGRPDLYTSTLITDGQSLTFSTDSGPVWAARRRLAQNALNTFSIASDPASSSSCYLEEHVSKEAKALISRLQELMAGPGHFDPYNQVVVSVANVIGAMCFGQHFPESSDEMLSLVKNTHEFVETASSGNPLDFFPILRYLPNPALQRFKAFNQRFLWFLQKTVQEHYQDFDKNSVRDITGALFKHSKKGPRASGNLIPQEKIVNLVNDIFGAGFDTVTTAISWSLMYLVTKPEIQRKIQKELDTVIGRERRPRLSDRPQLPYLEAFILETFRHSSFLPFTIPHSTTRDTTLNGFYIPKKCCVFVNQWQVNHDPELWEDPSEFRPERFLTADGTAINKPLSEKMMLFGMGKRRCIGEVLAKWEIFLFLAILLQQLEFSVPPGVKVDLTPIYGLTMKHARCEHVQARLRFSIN

Cytochrome P450 2C19 = Cytochrome P450 2C19 (Homo sapiens, UniProt P33261); assay: Cytochrome panel assay with activity outcomes. Panel member name: p450-cyp2c19 Compounds with AC50 equal or less than 10 uM are considered active; format: functional; settings: read-out: AC50
[5] = growth induction of Burl-1 ts yeast mutant, dose response, counter-screen for SUMOylation pathway inhibitor project, whole organism, S. cerevisiae, luminescence (AID 463199); format: functional
HEK293 [6] = assay: cytotoxicity in HEK293T NF-kB-Luc cells, SAR follow-up, cytotoxicity control for NF-kB activator project, cell-based, resazurin fluorescence (AID 493251); format: functional; settings: Homo sapiens
HEK293 [7] = assay: SAR Analysis of small molecule inhibitors of B-cell specific antigen receptor-induced NF-kB activation in a HEK-293T cell line using a luminescence assay - Set 2. [Related pubchem assays (depositor defined):AID435022, AID435025, AID489021]; format: functional, cell-based; settings: Homo sapiens
A-375 [8] = assay: A375 melanoma cell viability reduction, dose response, counter-screen for MITF modulator project, cherry-pick samples, set 2 (AID 540335); format: functional, cell-based; settings: Homo sapiens
[9] = luciferase signal loss, tTA control fusion, HeLa F-luc tTA cells, dry powder, counter-screen for HIV Env fusion inhibitor project, dose response (AID 687021); format: functional, cell-based
[10] = cytotoxicity in HEK-293T cells, dose response, cytotoxicity control for BCR NF-kB inhibitor project, luminescence, B-cell screen hits (AID 489021); format: functional, cell-based;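 note: HEK-293T cells carrying an NF-kB luciferase reporter; cells exposed to compound for about 14 hours before viability readout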
[11] = ZM109 Env clade C HIV-1 fusion inhibitors, dose response, HeLa effector, CEM target cells, luciferase, cherry-pick (AID 652058); format: functional, cell-based
[12] = inhibitors of HIV Env-driven cell fusion, dose response, cherry-pick (AID 652057); format: functional, cell-based
[13] = CEM21 cell cytotoxicity, dose response, cytotoxicity control, plate reader, dry powder (AID 687026); format: functional, cell-based
A-375 [14] = assay: MITF: Counter assay: A375 proliferation Measured in Cell-Based System Using Plate Reader - 2084-03_Inhibitor_Dose_DryPowder_Activity. [Related pubchem assays (depositor defined):AID488944]; format: functional; settings: Homo sapiens
[15] = inhibitors of firefly luciferase expression or activity, dose response, H4 neuroglioma cells, luminescence (AID 1990); format: functional, cell-based
[16] = Luminescence-based counterscreen assay for KLF5 inhibitors: dose response cell-based high throughput screening assay to identify cytotoxic compounds using the IEC-6 intestinal epithelial cell line. [Related pubchem assays: 1700 (Primary screen.), 1834 (Confirmation screen.), 1858 (Summary AID.), 1905 (Counterscreen.)]; format: functional
[17] = biological target: T5, Microphthalmia-associated transcription factor (Homo sapiens, UniProt O75030); assay: TRPM1 promoter luciferase signal decrease, dose response, MITF inhibitor project, cell-based, SK-MEL-5, cherry-picked, set 3 (AID 493073); format: functional
T5 sequence (O75030 whole entry): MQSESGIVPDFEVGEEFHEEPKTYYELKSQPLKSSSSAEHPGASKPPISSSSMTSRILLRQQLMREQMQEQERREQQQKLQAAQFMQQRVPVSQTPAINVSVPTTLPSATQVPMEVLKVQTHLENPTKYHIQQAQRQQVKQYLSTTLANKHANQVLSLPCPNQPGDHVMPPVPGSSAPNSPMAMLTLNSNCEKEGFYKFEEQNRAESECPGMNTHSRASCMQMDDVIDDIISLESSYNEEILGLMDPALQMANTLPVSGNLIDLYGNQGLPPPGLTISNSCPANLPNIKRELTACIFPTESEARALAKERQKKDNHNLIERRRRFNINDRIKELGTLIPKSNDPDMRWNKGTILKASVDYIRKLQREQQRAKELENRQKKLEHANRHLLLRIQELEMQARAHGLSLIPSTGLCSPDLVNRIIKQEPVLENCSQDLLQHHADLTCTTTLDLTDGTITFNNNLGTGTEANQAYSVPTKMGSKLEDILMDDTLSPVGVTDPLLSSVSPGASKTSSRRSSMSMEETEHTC

[18] = Luminescence Cell-Based Dose Response HTS to Identify Inhibitors of 5'UTR Stem-Loop Driven Prion Protein mRNA Translation in H4 Neuroglioblastoma Cells. [Related pubchem assays: 1827 (Project Summary), 1813 (Primary HTS)]; format: functional
Jurkat [19] = assay: SAR Analysis of small molecule inhibitors of […] specific antigen receptor-induced NF-kB activation in a Jurkat cell line using a luminescence assay - Set 3. [Related pubchem assays (depositor defined):AID435022, AID435025, AID465]; format: functional, cell-based; settings: Homo sapiens
[20] = inhibitors of clade B AD8 Env fusion, dose response, cell-based, cherry-pick (AID 652062); format: functional;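 note: luciferase signal from cell-cell fusion driven by HIV-1 clade B AD8 Env; potency is for inhibitors of fusion seen as a drop in luminescence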
[21] = inhibitors of SNCA 5'UTR-driven reporter translation, confirmation, H4 neuroglioma cells, luminescence (AID 1988); format: functional, cell-based
Cytochrome P450 2D6 [22] = biological target: T3, Cytochrome P450 2D6; remark: listed apart in the source
[23] = cytotoxicity in HEK-293T cells, dose response, cytotoxicity control for TCR NF-kB inhibitor project, luminescence, T-cell screen hits (AID 489026); format: functional, cell-based;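 note: cells exposed to compound about 14 hours before the viability readout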
Jurkat [24] = assay: SAR Analysis of small molecule inhibitors of T-cell specific antigen receptor-induced NF-kB activation in a Jurkat cell line using a luminescence assay - Set 2. [Related pubchem assays (depositor defined):AID435003, AID435012, AID465]; format: functional, cell-based; settings: Homo sapiens
HEK293 [25] = assay: SAR Analysis of small molecule inhibitors of T-cell specific antigen receptor-induced NF-kB activation in a HEK-293T cell line using a luminescence assay - Set 2. [Related pubchem assays (depositor defined):AID435003, AID435012, AID489026]; format: functional, cell-based; settings: Homo sapiens

T3 sequence (P10635 whole entry): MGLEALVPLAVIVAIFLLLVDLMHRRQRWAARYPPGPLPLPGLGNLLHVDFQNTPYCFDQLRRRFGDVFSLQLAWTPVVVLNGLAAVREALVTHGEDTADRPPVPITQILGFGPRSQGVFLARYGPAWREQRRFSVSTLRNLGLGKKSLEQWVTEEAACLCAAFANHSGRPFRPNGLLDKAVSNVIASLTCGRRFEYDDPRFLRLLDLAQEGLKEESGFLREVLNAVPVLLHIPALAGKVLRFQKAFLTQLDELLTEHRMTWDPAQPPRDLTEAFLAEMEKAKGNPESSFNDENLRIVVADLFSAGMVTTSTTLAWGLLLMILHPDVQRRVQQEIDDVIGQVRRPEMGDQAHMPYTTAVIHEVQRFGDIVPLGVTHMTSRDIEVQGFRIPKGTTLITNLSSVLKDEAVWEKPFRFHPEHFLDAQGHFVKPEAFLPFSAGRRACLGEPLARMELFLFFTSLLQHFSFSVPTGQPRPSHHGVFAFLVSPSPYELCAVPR
Sequence of Cytochrome P450 2C19 (P33261 whole entry): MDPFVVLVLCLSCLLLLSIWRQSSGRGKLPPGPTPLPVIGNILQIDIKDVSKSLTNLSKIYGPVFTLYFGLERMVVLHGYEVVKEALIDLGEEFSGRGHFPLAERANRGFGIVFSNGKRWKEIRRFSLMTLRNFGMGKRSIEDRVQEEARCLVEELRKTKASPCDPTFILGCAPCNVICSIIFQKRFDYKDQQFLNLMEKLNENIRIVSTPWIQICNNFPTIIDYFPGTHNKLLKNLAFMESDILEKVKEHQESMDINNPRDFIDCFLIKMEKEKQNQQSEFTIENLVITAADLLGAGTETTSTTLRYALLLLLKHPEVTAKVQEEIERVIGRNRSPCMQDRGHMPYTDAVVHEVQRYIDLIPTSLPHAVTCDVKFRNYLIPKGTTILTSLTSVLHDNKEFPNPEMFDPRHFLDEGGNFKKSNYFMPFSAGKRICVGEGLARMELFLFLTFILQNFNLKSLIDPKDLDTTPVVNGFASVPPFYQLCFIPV
Sequence of Hexokinase-1 (P19367 whole entry): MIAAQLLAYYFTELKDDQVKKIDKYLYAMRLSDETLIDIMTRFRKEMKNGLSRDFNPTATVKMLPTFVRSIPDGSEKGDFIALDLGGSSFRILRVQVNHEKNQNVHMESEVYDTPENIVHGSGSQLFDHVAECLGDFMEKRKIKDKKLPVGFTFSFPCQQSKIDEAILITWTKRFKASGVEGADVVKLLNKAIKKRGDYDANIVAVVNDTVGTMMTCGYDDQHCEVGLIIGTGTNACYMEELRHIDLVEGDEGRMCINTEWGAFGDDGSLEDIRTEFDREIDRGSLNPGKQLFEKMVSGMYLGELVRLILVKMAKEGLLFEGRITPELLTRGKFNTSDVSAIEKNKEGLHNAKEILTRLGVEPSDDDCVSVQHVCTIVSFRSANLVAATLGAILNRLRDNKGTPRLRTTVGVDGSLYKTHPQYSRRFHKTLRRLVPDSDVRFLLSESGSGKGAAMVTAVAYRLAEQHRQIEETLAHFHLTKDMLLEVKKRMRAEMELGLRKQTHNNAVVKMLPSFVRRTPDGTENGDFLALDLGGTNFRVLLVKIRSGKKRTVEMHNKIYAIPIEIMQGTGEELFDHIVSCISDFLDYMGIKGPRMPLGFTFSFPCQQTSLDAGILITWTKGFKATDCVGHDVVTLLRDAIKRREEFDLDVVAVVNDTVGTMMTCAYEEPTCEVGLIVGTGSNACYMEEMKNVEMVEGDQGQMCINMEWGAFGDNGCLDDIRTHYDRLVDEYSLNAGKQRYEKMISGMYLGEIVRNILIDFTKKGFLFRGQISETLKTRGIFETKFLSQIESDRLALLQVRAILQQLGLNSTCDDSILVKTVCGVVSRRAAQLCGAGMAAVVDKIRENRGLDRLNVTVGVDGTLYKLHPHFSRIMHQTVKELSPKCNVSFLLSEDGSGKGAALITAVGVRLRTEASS

COc1cc2c(cc1OC)-c1cc(NCCN(C)C)nc(=O)n1CC2
IC50 (Hexokinase HKDC1): > 80 µM (inactive)
IC50 (Hexokinase-1): > 80 µM (inactive)

CCOc1ccc(C(=O)/C=C/Nc2ccc(S(=O)(=O)N=C(N)N)cc2)cc1
EC50 [1]: 21.8 µM (active)
EC50 [2]: 16.3 µM (active)
EC50 [3]: 6.28 µM (active)

Cc1cccc(C)c1N=C1NCCCS1 [XYLAZINE]
AC50 (Cytochrome P450 2D6 [4]): 39.8 µM (inconclusive) and 10 µM (inconclusive)
AC50 (Cytochrome P450 1A2): inactive

Cc1ccc(S(=O)(=O)N2CCOCC2)cc1NC(=O)COC(=O)CCC(=O)c1cccs1
AC50 (Cytochrome P450 2D6 [4]): 31.6 µM (inconclusive)
AC50 (Cytochrome P450 2C19): 39.8 µM (inconclusive)
AC50 [5]: 87.5 µM (active)

CC(C)(C)c1ccc(-c2noc(CCC(=O)NCC3CCCO3)n2)cc1 (configuration not stated)
IC50 (HEK293 [6]): 70.9 µM (inactive)
IC50 (HEK293 [7]): 1.54 µM (active)
AC50 (A-375 [8]): > 35 µM (active)
AC50 [9]: 67.1 µM (active)
IC50 [10]: > 80 µM (inactive)
AC50 [11]: 0.293 µM (active)
AC50 [12]: 0.359 µM (active)
AC50 [13]: > 70 µM (inactive)
AC50 (A-375 [14]): > 35 µM (active)
EC50 [15]: < 0.1 µM (active)
IC50 [16]: > 39.8 µM (not active)
AC50 [17]: 0.275 µM (active)
EC50 [18]: 9.11 µM (active)
IC50 (Jurkat [19]): 13.4 µM (active)
AC50 [20]: < 0.26 µM (active)
EC50 [21]: 0.152 µM (active)

Cc1ncc([N+](=O)[O-])n1CC(C)O (configuration not stated) [SECNIDAZOLE]
AC50 (Cytochrome P450 2D6 [22]): inconclusive

Cc1cc(C)cc(NC(=O)c2ccc([N+](=O)[O-])o2)c1
IC50 (HEK293 [6]): 43.4 µM (inactive)
IC50 [23]: > 80 µM (inactive)
AC50 [17]: 16.6 µM (active)
IC50 (Jurkat [24]): 0.85 µM (active)
IC50 (HEK293 [25]): 21.8 µM (inactive)
